Test results as given in patent publication US10654834B2 (Venenum Biodesign, LLC, priority 2016, dated 2020).

What was measured:
human TGR5 receptor = target: T1, human TGR5 receptor (Homo sapiens, UniProt Q8TDU6); test: Human TGR5 cAMP production assay (hTGR5-CHO cells, DiscoveRx cAMP XS+ kit); type: cell-based; settings: luminescent cAMP assay, read-out: Human TGR5 Lum. cAMP Activity (EC50)
T1 construct: host or cells: CHO-K1 (hTGR5-CHO)
T1 sequence (Q8TDU6 1-330): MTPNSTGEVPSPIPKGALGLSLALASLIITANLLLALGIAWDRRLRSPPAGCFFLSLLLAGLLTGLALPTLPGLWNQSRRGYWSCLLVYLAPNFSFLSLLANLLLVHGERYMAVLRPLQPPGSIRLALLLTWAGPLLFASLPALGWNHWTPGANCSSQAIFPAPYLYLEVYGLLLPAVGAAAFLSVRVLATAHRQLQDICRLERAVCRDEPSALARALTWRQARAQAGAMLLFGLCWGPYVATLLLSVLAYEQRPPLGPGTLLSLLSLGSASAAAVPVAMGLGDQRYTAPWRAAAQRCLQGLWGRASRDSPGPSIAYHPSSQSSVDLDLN
Experimental: Human TGR5 cAMP Production Assay
Compounds of the present invention were evaluated for their ability to induce cAMP production using CHO-K1 cells overexpressing the human TGR5 receptor.
CHO-K1 cells stably expressing human TGR5 receptor (accession number NM_001077194.1) (hTGR5) (i.e., hTGR5-CHO cells) were purchased from DiscoveRx Corporation (Fremont, Calif.). hTGR5-CHO cells were grown in Ham's F-12 media supplemented with 10% Fetal Bovine Serum, 1% Penicillin-Streptomycin, 2 mM L-Alanine L-Glutamine (Glutamax), and 800 μg/mL Geneticin selection. The cAMP production assay was performed using DiscoveRx's cAMP XS+ kit (Catalog No. 90-0075XL) following the manufacturer's recommended protocol. Briefly, hTGR5-CHO cells were harvested using non-enzymatic cell dissociation buffer (Sigma-Aldrich, St. Louis, Mo.) and 1×10^6 cells were combined in Phosphate-Buffered Saline (PBS) to a final volume of 496 μL to which 4 μL of 125 mM IBMX (Sigma-Aldrich, St. Louis, Mo.) was added. 500 μL of cAMP antibody solution was added to the harvested cells and incubated at room temperature for 20 min.
Test compounds were serially diluted (half-log dilutions) in DMSO and then further diluted 1:50 in PBS, 10 mM HEPES buffer. 2 μL of serially diluted compound was added to a 384-well low volume plate (Greiner; cat #784075) and centrifuged briefly. 2 μl of the cell/cAMP antibody mixture was then added to each compound-containing well and allowed to incubate at room temperature for one hour. Following incubation, the XS+ kits' ED/Lysis/CL Substrate Working Solution was prepared following the manufacturer's recommended protocol and 4 μL was added to each well of the plate. The plate was then incubated for one hour at room temperature. Following incubation, 4 μL of Enzyme Acceptor reagent was added to the plate and allowed to incubate overnight at room temperature. Luminescent signal was then detected using the Viewlux instrument (Perkin-Elmer, Waltham, Mass.).
Human and Mouse TGR5 cAMP
(§1) In Table 52, EC50 values for both human and mouse cells were determined according to the TGR5 cAMP assays described above. […]

mouse TGR5 receptor = target: T2, mouse TGR5 receptor (Mus musculus, UniProt Q80SS6); test: Mouse TGR5 HTRF cAMP production assay (HEK293-EBNA cells, Cisbio cAMP HiRange kit); type: cell-based; settings: HEK293-EBNA cells overexpressing mouse TGR5, HTRF cAMP assay
T2 construct: host or cells: HEK293-EBNA (293 c18, ATCC CRL10852)
T2 sequence (Q80SS6 1-329): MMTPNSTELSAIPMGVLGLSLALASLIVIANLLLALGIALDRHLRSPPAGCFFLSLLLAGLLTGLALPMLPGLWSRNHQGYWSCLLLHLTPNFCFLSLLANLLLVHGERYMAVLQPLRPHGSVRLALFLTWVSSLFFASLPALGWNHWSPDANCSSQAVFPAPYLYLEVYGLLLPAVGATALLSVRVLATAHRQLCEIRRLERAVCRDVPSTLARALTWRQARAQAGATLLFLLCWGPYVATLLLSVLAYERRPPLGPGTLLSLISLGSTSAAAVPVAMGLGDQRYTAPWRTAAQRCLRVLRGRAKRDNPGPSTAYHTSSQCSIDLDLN
Experimental: Mouse TGR5 cAMP Production Assay
Compounds of the present invention were evaluated for their ability to induce cAMP production in HEK-EBNA cells overexpressing the mouse TGR5 receptor. Human embryonic kidney cells (HEK293-EBNA) stably expressing mouse TGR5 receptor were established using the following procedure. Specifically, a commercially obtained gene encoding mouse TGR5 (accession number BC116914) from Thermo Scientific (Waltham, Mass.) was cloned into an episomal expression vector. The resulting expression plasmid was then transfected into 293 c18 (ATCC® CRL10852™) cells, which express the Epstein-Barr virus nuclear antigen EBNA1 and can support the replication of episomal vectors. Selection for the plasmid was maintained with Hygromycin B. Cells were cultured and maintained in DMEM (Sigma; cat #6429) supplemented with 10% Fetal Bovine Serum, 1% penicillin/streptomycin, 2 mM L-alanine L-glutamine (GlutaMax), and 250 μg/mL Hygromycin.
We developed two cAMP production assays.
(ii) HTRF cAMP Production Assay
In this second cAMP production assay, the cAMP production was measured in 384-well low volume plates (Greiner; cat #784075) using the Cisbio™ cAMP HiRange HTRF Assay Kit (CisBio) according to the manufacturer's protocol.
Briefly, compounds were initially diluted in 100% DMSO (12-point serial dilution by half logs) in a 96-well plate and then were further diluted 1:50 in PBS containing 10 mM HEPES. 5 μL were transferred to the 384-well assay plate in duplicate. HEK293-EBNA cells stably overexpressing mouse TGR5 were harvested using non-enzymatic cell dissociation buffer (Sigma), spun down, then resuspended in serum-free DMEM with 500 μM IBMX at a density of 500,000 cells/mL. 5 μL of cell suspension was transferred to each well of the 384-well assay plate already containing compound. The plate was covered and incubated at room temperature for 1 hour. The d2-cAMP and anti-cAMP Ab-cryptate stock solutions were prepared as per kit instructions. Then 5 μL of each conjugate (d2 and cryptate) were added to each well of the assay plate. The plate was covered and incubated at room temperature for one (1) hour. The plate was read on an Envision™ plate reader (PerkinElmer).
as §1

EC50 (human TGR5 receptor)	EC50 (mouse TGR5 receptor)	SMILES
1000 to 30000 nM	100 to 999 nM	O=C(CCCC1CCN(c2cc(N3CCC[C@H]3C(=O)NCCc3cccc(-c4ccncc4)c3)nc(C(F)(F)F)n2)CC1)NCS(=O)(=O)O [Compound 354, (S)-(4-(1-(6-(2-((3-(pyridin-4-yl)phenethyl)carbamoyl)pyrrolidin-1-yl)-2-(trifluoromethyl)pyrimidin-4-yl)piperidin-4-yl)butanamido)methanesulfonic acid]
< 100 nM	< 100 nM	N#Cc1ccc(CCNC(=O)[C@@H]2CCCN2c2cc(N3CCC(CCCC(=O)N4CCN(CC(=O)O)CC4)CC3)nc(C(F)(F)F)n2)cc1 [Compound 108, (S)-2-(4-(4-(1-(6-(2-((4-cyanophenethyl)carbamoyl)pyrrolidin-1-yl)-2-(trifluoromethyl)pyrimidin-4-yl)piperidin-4-yl)butanoyl)piperazin-1-yl)acetic acid]
1000 to 30000 nM	100 to 999 nM	CN(C(=O)NCCC(=O)O)c1ccc(-c2cc(N3CCC[C@H]3C(=O)NCCc3ccc(C#N)cc3)nc(C(F)(F)F)n2)cc1 [Compound 196, (S)-3-(3-(4-(6-(2-((4-cyanophenethyl)carbamoyl)pyrrolidin-1-yl)-2-(trifluoromethyl)pyrimidin-4-yl)phenyl)-3-methylureido)propanoic acid]
100 to 999 nM	< 100 nM	N#Cc1ccc(CCNC(=O)[C@@H]2CCCN2c2cc(-c3ccc(CCC(=O)O)cc3)nc(C(F)(F)F)n2)cc1 [Compound 188, (S)-3-(4-(6-(2-((4-cyanophenethyl)carbamoyl)pyrrolidin-1-yl)-2-(trifluoromethyl)pyrimidin-4-yl)phenyl)propanoic acid]
1000 to 30000 nM	100 to 999 nM	O=C(O)CCCC1CCN(c2cc(N3CCC[C@H]3C(=O)NCCc3ccc(Cl)cc3Cl)ncn2)CC1 [Compound 35]
< 100 nM	< 100 nM	COc1cc(C(F)(F)F)ccc1CCNC(=O)[C@@H]1CCN1c1cc(N2CCC(CO)CC2)nc(C(F)(F)F)n1 [Compound 237, (S)-1-(6-(4-(hydroxymethyl)piperidin-1-yl)-2-(trifluoromethyl)pyrimidin-4-yl)-N-(2-methoxy-4-(trifluoromethyl)phenethyl)azetidine-2-carboxamide]
100 to 999 nM	< 100 nM	N#Cc1ccc(CCNC(=O)[C@@H]2CCCN2c2cc(-c3csc(CO)c3)nc(C(F)(F)F)n2)cc1 [Compound 182, (S)—N-(4-cyanophenethyl)-1-(6-(5-(hydroxymethyl)thiophen-3-yl)-2-(trifluoromethyl)pyrimidin-4-yl)pyrrolidine-2-carboxamide]
< 100 nM	< 100 nM	N#Cc1ccc(CCNC(=O)[C@@H]2CCCN2c2cc(N3CCC(CCCC(=O)NCCNc4nccc(C(=O)O)n4)CC3)nc(C(F)(F)F)n2)cc1 [Compound 102, (S)-2-((2-(4-(1-(6-(2-((4-cyanophenethyl)carbamoyl)pyrrolidin-1-yl)-2-(trifluoromethyl)pyrimidin-4-yl)piperidin-4-yl)butanamido)ethyl)amino) pyrimidine-4-carboxylic acid]
< 100 nM	< 100 nM	COCCC1CCN(c2cc(N3CC[C@H]3C(=O)NCCc3ccc(C#N)cc3)nc(C(F)(F)F)n2)CC1 [Compound 225, (S)-N-(4-cyanophenethyl)-1-(6-(4-(2-methoxyethyl)piperidin-1-yl)-2-(trifluoromethyl)pyrimidin-4-yl)azetidine-2-carboxamide]
1000 to 30000 nM	1000 to 30000 nM	O=C(O)CCNC(=O)NCCC1CCN(c2cc(N3CCC[C@H]3C(=O)NCCc3ccc(-c4ccccn4)cc3)nc(C(F)(F)F)n2)CC1 [Compound 378, (S)-3-(3-(2-(1-(6-(2-((4-(pyridin-2-yl)phenethyl)carbamoyl)pyrrolidin-1-yl)-2-(trifluoromethyl)pyrimidin-4-yl)piperidin-4-yl)ethyl)ureido)propanoic acid]
< 100 nM	< 100 nM	N#Cc1ccc(CCNC(=O)[C@@H]2CCCN2c2cc(N3CCC(CCNC(=O)NCCNC(=O)[C@@H](N)CS(=O)(=O)O)CC3)nc(C(F)(F)F)n2)cc1 [Compound 373, (R)-2-amino-3-((2-(3-(2-(1-(6-((S)-2-((4-cyanophenethyl)carbamoyl)pyrrolidin-1-yl)-2-(trifluoromethyl)pyrimidin-4-yl)piperidin-4-yl)ethyl)ureido)ethyl)amino)-3-oxopropane-1-sulfonic acid]
100 to 999 nM	< 100 nM	N#Cc1ccc(CCNC(=O)[C@@H]2CCCN2c2cc(-c3ccc(CNC(=O)NCS(=O)(=O)O)cc3)nc(C(F)(F)F)n2)cc1 [Compound 192, (S)-(3-(4-(6-(2-((4-cyanophenethyl)carbamoyl)pyrrolidin-1-yl)-2-(trifluoromethyl)pyrimidin-4-yl)benzyl)ureido)methanesulfonic acid]
< 100 nM	< 100 nM	N#CCCC1CCN(c2cc(N3CCC[C@H]3C(=O)NCCc3ccc(C(F)(F)F)cc3)nc(C(F)(F)F)n2)CC1 [Compound 11]
< 100 nM	< 100 nM	N#Cc1ccc(CCNC(=O)[C@@H]2CCCN2c2cc(N3CCC(CCCO)CC3)nc(C(F)(F)F)n2)cc1 [Compound 23]
100 to 999 nM	< 100 nM	CCOC(=O)CCNC(=O)N1CCN(c2cc(N3CCC[C@@H](C(=O)NCCc4ccc(C(F)(F)F)cc4)C3)nc(C(F)(F)F)n2)CC1 [Compound 343, (R)-ethyl 3-(4-(2-(trifluoromethyl)-6-(3-((4-(trifluoromethyl)phenethyl)carbamoyl)-piperidin-1-yl)pyrimidin-4-yl)piperazine-1-carboxamido)propanoate]
100 to 999 nM	< 100 nM	COC(=O)c1ccc(S(=O)(=O)NCCOCCNC(=O)CCCC2CCN(c3cc(N4CC[C@H]4C(=O)NCCc4ccc(C#N)cc4)nc(C(F)(F)F)n3)CC2)cc1 [Compound 290, (S)-methyl 4-(N-(2-(2-(4-(1-(6-(2-((4-cyanophenethyl)carbamoyl)azetidin-1-yl)-2-(trifluoromethyl)pyrimidin-4-yl)piperidin-4-yl)butanamido)ethoxy)ethyl)-sulfamoyl)benzoate]
